Active and inactive are the calls of the source.
What was measured:
[1] = test system: HEK293; test: cells; type: functional, cell-based; details: Homo sapiens
[2] = biological target: T1, Nuclear receptor subfamily 0 group B member 1 (Homo sapiens, UniProt P51843); test: Luminescence-based cell-based high throughput dose response assay for inhibitors of the orphan nuclear receptor subfamily 0, group B, member 1 (DAX1; NR0B1). [Related pubchem assays (depositor defined):AID504766, AID504790]; type: functional
T1 sequence (P51843 whole entry): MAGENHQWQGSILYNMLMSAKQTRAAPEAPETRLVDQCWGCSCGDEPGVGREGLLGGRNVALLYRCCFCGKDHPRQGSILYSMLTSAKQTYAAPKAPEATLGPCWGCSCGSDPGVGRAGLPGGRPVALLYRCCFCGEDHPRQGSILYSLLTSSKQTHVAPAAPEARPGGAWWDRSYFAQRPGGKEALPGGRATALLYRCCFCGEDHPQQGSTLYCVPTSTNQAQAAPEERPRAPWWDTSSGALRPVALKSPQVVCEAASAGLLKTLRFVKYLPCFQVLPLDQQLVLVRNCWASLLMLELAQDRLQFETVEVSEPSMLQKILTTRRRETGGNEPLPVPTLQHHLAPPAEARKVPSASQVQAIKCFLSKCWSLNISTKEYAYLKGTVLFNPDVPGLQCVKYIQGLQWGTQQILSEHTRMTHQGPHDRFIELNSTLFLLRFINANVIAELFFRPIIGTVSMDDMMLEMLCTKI

[3] = biological target: T2, Apoptotic protease-activating factor 1 (Homo sapiens, UniProt O14727); type: functional
T2 sequence (O14727 whole entry): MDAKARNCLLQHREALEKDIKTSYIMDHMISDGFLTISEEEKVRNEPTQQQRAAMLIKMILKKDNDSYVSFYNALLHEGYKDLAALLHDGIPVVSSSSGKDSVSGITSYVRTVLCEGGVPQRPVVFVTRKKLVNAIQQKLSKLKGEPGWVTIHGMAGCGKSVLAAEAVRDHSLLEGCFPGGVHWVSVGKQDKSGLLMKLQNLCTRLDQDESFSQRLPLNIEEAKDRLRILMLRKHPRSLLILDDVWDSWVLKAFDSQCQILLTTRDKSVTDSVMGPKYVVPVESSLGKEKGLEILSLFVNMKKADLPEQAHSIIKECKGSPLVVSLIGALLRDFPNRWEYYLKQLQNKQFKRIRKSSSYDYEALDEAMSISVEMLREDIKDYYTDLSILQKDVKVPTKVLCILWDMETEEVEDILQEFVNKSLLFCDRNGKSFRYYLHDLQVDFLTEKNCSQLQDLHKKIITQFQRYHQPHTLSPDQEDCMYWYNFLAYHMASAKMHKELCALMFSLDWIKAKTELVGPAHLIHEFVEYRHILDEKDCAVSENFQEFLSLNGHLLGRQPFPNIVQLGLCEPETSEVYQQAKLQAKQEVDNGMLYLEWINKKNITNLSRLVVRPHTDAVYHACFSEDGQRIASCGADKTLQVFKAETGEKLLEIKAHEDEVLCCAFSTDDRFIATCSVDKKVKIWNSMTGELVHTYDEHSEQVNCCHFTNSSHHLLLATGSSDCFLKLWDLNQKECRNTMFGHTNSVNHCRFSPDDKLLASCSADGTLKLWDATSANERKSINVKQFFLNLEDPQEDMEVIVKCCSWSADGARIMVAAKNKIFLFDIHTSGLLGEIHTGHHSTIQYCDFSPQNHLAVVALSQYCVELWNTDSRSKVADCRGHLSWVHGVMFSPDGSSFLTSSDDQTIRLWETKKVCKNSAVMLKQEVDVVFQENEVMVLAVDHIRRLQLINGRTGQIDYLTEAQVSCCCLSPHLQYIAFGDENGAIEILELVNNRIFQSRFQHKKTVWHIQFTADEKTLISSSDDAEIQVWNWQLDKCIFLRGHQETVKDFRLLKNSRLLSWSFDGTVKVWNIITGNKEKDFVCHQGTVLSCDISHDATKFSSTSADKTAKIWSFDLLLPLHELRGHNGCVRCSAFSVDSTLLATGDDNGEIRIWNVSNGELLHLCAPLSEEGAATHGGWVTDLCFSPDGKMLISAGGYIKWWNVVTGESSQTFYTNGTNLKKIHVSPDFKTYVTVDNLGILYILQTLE

[4] = biological target: Large T antigen (Simian virus 40, UniProt P03070); type: functional, Betapolyomavirus macacae;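 also: Confirmatory-stage PubChem screen for compounds that inhibit SV40 T antigen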
Chain of Large T antigen (P03070 whole entry): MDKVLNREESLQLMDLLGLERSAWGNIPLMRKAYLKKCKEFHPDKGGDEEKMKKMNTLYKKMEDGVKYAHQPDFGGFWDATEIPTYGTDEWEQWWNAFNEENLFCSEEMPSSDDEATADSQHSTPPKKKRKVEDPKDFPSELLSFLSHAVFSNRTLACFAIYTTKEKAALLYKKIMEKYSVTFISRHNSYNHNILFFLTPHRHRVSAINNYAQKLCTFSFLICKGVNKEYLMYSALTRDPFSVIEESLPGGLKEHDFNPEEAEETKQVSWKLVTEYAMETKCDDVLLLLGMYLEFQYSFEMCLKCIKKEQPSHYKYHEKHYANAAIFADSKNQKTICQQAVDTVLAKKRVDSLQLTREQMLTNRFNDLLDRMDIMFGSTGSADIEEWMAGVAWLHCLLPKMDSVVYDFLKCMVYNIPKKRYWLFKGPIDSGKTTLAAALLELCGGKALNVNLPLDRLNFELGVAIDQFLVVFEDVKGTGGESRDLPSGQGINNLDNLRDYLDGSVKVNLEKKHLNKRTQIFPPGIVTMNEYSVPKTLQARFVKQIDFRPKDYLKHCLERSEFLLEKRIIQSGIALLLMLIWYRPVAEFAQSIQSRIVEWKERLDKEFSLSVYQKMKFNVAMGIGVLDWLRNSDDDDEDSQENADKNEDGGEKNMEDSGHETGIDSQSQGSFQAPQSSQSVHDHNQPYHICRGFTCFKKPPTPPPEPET

[5] = biological target: Beta-2 adrenergic receptor (Homo sapiens, UniProt P07550); test: ADRB2 activation measured by internalization – cell-based, FAP fluorogen, flow cytometry, cherry pick 1, dose response (AID 588763); type: functional
Chain of Beta-2 adrenergic receptor (P07550 whole entry): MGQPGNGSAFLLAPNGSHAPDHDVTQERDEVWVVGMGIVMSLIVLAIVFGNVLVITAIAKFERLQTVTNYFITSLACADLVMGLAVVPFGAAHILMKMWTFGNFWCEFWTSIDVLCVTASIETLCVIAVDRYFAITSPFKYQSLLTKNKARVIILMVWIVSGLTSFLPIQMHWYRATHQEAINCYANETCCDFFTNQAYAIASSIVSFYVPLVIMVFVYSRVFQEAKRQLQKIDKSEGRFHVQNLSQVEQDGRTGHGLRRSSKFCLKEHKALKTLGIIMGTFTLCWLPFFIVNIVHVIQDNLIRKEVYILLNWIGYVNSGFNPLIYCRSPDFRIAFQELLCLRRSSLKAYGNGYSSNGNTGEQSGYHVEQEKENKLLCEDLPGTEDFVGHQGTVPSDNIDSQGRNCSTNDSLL

[6] = biological target: CAAX prenyl protease 1 (Saccharomyces cerevisiae S288c, UniProt P47154); test: yeast CAAX protease Ste24 inhibition – biochemical, S. cerevisiae, plate reader, cherry-pick, dose response (AID 488815)
Chain of CAAX prenyl protease 1 (P47154 whole entry): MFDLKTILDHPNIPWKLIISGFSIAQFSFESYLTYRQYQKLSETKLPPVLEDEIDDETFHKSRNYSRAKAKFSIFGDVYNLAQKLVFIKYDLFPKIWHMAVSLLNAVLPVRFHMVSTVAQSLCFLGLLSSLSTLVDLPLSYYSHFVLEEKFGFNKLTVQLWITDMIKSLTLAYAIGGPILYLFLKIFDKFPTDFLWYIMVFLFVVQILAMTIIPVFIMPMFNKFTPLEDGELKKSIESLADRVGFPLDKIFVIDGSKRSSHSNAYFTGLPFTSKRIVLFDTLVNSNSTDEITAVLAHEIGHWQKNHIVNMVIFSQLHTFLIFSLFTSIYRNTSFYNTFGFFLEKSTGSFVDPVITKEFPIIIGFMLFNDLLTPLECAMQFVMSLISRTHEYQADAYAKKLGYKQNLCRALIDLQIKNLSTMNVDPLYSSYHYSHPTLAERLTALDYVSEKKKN

[7] = biological target: Dual specificity tyrosine-phosphorylation-regulated kinase 1A (Rattus norvegicus, UniProt Q63470); type: biochemical, Homo sapiens

How did the IC50 [1] turn out when `CCc1ccc(S(=O)(=O)Nc2c(C)nc3ncnn3c2O)cc1` was run?
Its IC50 is > 67.5 µM (inactive).

And the IC50 [2]?
Its IC50 is > 67.5 µM (inactive).

With `COc1ccc(S(=O)(=O)Cc2ccc(C(=O)NC3CC3)o2)cc1` as the compound, how does the IC50 [1] read?
The IC50 was > 67.6 µM (inactive).

And the IC50 [2]?
Its IC50 is > 67.6 µM (inactive).

With `CCC(CN(C)C)Oc1cc(NCc2ccccc2)c2ncn(C(C)C)c2c1` (centres undefined) as the compound, how does the IC50 [3] read?
The IC50 was 7.98 µM (active).

`CC(=O)c1cccc(S(=O)(=O)N2CCCC(c3nc(-c4ccc(C)o4)no3)C2)c1` (centres undefined) was tested. Which IC50 [4] did it give?
The IC50 was 36.4 µM (active).

What about the EC50 [5] of the same compound?
Its EC50 is 0.143 µM (active).

What does the source list for `COc1ccc2c3c([nH]c2c1)C(C)=NCC3` [HARMALINE]?
AC50 [6]: 2.77 µM (active); AC50 [7]: 1.24 µM (active)

Source: ChEMBL document CHEMBL1201862, “PubChem BioAssay data set” (2004)
